Like-named read-outs stand apart in the source and are kept apart here.
Tests used:
[1] = human, in vivo; for AUC/Dose / CL / Cmax/Dose / Vss: iv
[2] = clinical; settings: human, in vivo

**Q.** Which “CL (mean)” value [1] does the source give for `CC(=O)O[C@@]12CO[C@@H]1C[C@H](O)[C@@]1(C)C(=O)[C@H](O)C3=C(C)[C@@H](OC(=O)[C@H](OC(=O)CN4CCN(C)CC4)[C@@H](NC(=O)OC(C)(C)C)c4ccccc4)C[C@@](O)([C@@H](OC(=O)c4ccccc4)[C@H]21)C3(C)C` [TD-1] here?
**A.** 0.025 L/h/m^2

**Q.** And the “Cmax and AUC with respect to dose” value [1]?
**A.** remained linear with respect to dose

**Q.** And the “Vss (mean)” value [1]?
**A.** 1.422 L/m^2

**Q.** And the “dose proportionality for Cmax and AUCinf” value [1]?
**A.** demonstrate dose proportionality

**Q.** What about the AUC/Dose ([1]; 12 mg/m2) of the same compound?
**A.** 38106 m^2 · ng · h/ml/mg

**Q.** And the CL ([1]; 12 mg/m2)?
**A.** 0.0283 l/h/m^2

**Q.** What about the Cmax/Dose ([1]; 12 mg/m2) of the same compound?
**A.** 539.6 m^2 · ng/ml/mg

**Q.** And the Vss ([1]; 12 mg/m2)?
**A.** 1.46 l/m^2

**Q.** What about the AUC/Dose ([1]; 48 mg/m2) of the same compound?
**A.** 55469 m^2 · ng · h/ml/mg

**Q.** And the CL ([1]; 48 mg/m2)?
**A.** 0.0186 l/h/m^2

**Q.** What about the Cmax/Dose ([1]; 48 mg/m2) of the same compound?
**A.** 640.3 m^2 · ng/ml/mg

**Q.** What about the Vss ([1]; 48 mg/m2) of the same compound?
**A.** 1.40 l/m^2

**Q.** What about the AUC/Dose ([1]; 120 mg/m2) of the same compound?
**A.** 52326 m^2 · ng · h/ml/mg

**Q.** And the CL ([1]; 120 mg/m2)?
**A.** 0.0202 l/h/m^2

**Q.** What about the Cmax/Dose ([1]; 120 mg/m2) of the same compound?
**A.** 573.6 m^2 · ng/ml/mg

**Q.** And the Vss ([1]; 120 mg/m2)?
**A.** 0.090 l/m^2

**Q.** And the AUC/Dose ([1]; 225 mg/m2)?
**A.** 58571 m^2 · ng · h/ml/mg

**Q.** And the CL ([1]; 225 mg/m2)?
**A.** 0.0184 l/h/m^2

**Q.** What about the Cmax/Dose ([1]; 225 mg/m2) of the same compound?
**A.** 662.2 m^2 · ng/ml/mg

**Q.** And the Vss ([1]; 225 mg/m2)?
**A.** 1.08 l/m^2

**Q.** And the AUC/Dose ([1]; 320 mg/m2)?
**A.** 405478 m^2 · ng · h/ml/mg

**Q.** What about the CL ([1]; 320 mg/m2) of the same compound?
**A.** 0.0260 l/h/m^2

**Q.** And the Cmax/Dose ([1]; 320 mg/m2)?
**A.** 640.6 m^2 · ng/ml/mg

**Q.** And the Vss ([1]; 320 mg/m2)?
**A.** 1.58 l/m^2

**Q.** What about the half-life ([2]; average t1/2 for TD-1) of the same compound?
**A.** ~51 h

**Q.** And the AUC(0-inf) ([2]; iv, 3 mg/m2)?
**A.** 103 µg·h/mL

**Q.** What about the Cmax ([2]; iv, 3 mg/m2) of the same compound?
**A.** 1.52 µg/mL

**Q.** And the half-life ([2]; iv, 3 mg/m2, t1/2)?
**A.** 48.8 h

**Q.** And the AUC(0-inf) ([2]; iv, 6 mg/m2)?
**A.** 252 µg·h/mL

**Q.** And the Cmax ([2]; iv, 6 mg/m2)?
**A.** 3.15 µg/mL

**Q.** What about the half-life ([2]; iv, 6 mg/m2, t1/2) of the same compound?
**A.** 57.6 h

**Q.** And the AUC(0-inf) ([2]; iv, 12 mg/m2)?
**A.** 457 µg·h/mL

**Q.** And the Cmax ([2]; iv, 12 mg/m2)?
**A.** 6.48 µg/mL

**Q.** And the half-life ([2]; iv, 12 mg/m2, t1/2)?
**A.** 44 h

**Q.** And the AUC(0-inf) ([2]; iv, 24 mg/m2)?
**A.** 955 µg·h/mL

**Q.** What about the Cmax ([2]; iv, 24 mg/m2) of the same compound?
**A.** 13.7 µg/mL

**Q.** And the half-life ([2]; iv, 24 mg/m2, t1/2)?
**A.** 43.8 h

**Q.** What about the AUC(0-inf) ([2]; iv, 48 mg/m2) of the same compound?
**A.** 2660 µg·h/mL

**Q.** And the Cmax ([2]; iv, 48 mg/m2)?
**A.** 30.7 µg/mL

**Q.** And the half-life ([2]; iv, 48 mg/m2, t1/2)?
**A.** 59.3 h

**Q.** And the AUC(0-inf) ([2]; iv, 80 mg/m2)?
**A.** 2390 µg·h/mL

**Q.** What about the Cmax ([2]; iv, 80 mg/m2) of the same compound?
**A.** 43.4 µg/mL

**Q.** And the half-life ([2]; iv, 80 mg/m2, t1/2)?
**A.** 26.7 h

**Q.** And the AUC(0-inf) ([2]; iv, 120 mg/m2)?
**A.** 6280 µg·h/mL

**Q.** What about the Cmax ([2]; iv, 120 mg/m2) of the same compound?
**A.** 68.8 µg/mL

**Q.** What about the half-life ([2]; iv, 120 mg/m2, t1/2) of the same compound?
**A.** 48.3 h

**Q.** And the AUC(0-inf) ([2]; iv, 160 mg/m2)?
**A.** 9440 µg·h/mL

**Q.** What about the Cmax ([2]; iv, 160 mg/m2) of the same compound?
**A.** 98.5 µg/mL

**Q.** And the half-life ([2]; iv, 160 mg/m2, t1/2)?
**A.** 66.1 h

**Q.** And the AUC(0-inf) ([2]; iv, 190 mg/m2)?
**A.** 9810 µg·h/mL

**Q.** What about the Cmax ([2]; iv, 190 mg/m2) of the same compound?
**A.** 143 µg/mL

**Q.** What about the half-life ([2]; iv, 190 mg/m2, t1/2) of the same compound?
**A.** 53 h

**Q.** What about the AUC(0-inf) ([2]; iv, 225 mg/m2) of the same compound?
**A.** 13200 µg·h/mL

**Q.** And the Cmax ([2]; iv, 225 mg/m2)?
**A.** 149 µg/mL

**Q.** And the half-life ([2]; iv, 225 mg/m2, t1/2)?
**A.** 54.5 h

**Q.** And the AUC(0-inf) ([2]; iv, 270 mg/m2)?
**A.** 8370 µg·h/mL

**Q.** And the Cmax ([2]; iv, 270 mg/m2)?
**A.** 150 µg/mL

**Q.** What about the half-life ([2]; iv, 270 mg/m2, t1/2) of the same compound?
**A.** 35.6 h

**Q.** What about the AUC(0-inf) ([2]; iv, 320 mg/m2) of the same compound?
**A.** 13000 µg·h/mL

**Q.** And the Cmax ([2]; iv, 320 mg/m2)?
**A.** 205 µg/mL

**Q.** What about the half-life ([2]; iv, 320 mg/m2, t1/2) of the same compound?
**A.** 43.7 h

**Q.** And the AUC(0-inf) ([2]; iv, 380 mg/m2)?
**A.** 34100 µg·h/mL

**Q.** And the Cmax ([2]; iv, 380 mg/m2)?
**A.** 310 µg/mL

**Q.** And the half-life ([2]; iv, 380 mg/m2, t1/2)?
**A.** 84.4 h

**Q.** And the half-life ([2]; t1/2 (mean))?
**A.** ~50 h
